Patent US20180088120A1, “Elevated PSMA Identifies Lethal Prostate Cancers” (Cornell University, priority 2012, published 2018)

System: prostate cancer lesions
Assay: FDG PET imaging of prostate cancer patients (comparison)
Assay type: in vivo, human
Description: These panels show CT scans (left column) and PET scans (right column). […] However, this is not observed in the Fludeoxyglucose (^18F) PET (lower right panel).
FIGS. 7-9 show CT and PET/CT scan taken from the same patient as from FIG. 6.

SMILES: OC[C@H]1OC(O)[C@H]([18F])[C@@H](O)[C@@H]1O (some centres unmarked) [Fludeoxyglucose (^18F)]
- PET uptake in bone metastasis, left iliac bone (patient with metastatic prostate cancer, FIG. 5): not observed
- Uptake in skeletal lesions not clearly seen on bone scan (patient with prostate carcinoma, FIG. 6): non-FDG avid
